For the experiment, the system named is Plasmodium falciparum. The experiment in a line: Antimicrobial activity against Plasmodium falciparum. The format is functional, organism-based.
For the compound `Nc1ncc(Cc2cccc(Oc3ccccc3)c2)c(N)n1`, the IC50 came to 30 µM.

In turn, `COc1cc(NC(C)CCCN)c2nccc(C)c2c1OCc1ccc(C(F)(F)F)cc1` (stereo not drawn) yielded an IC50 of 3 µM.

In turn, `COc1cc(NC(C)CCCN)c2nccc(C)c2c1OCc1cccc(C(F)(F)F)c1` (stereo not drawn) gave an IC50 of 2 µM. For `COc1cc(NC(C)CCCN)c2nccc(C)c2c1OCCCCCc1ccccc1` (stereo not drawn), the IC50 was 5 µM.

`COc1cc(NC(C)CCCN)c2nccc(C)c2c1OCCCCc1ccccc1` (stereo not drawn): the IC50 stood at 174 µM. Next, `COc1cc(NC(C)CCCN)c2nccc(C)c2c1OCCCCCc1ccccc1C(F)(F)F` (stereo not drawn): 5 µM; `COc1cc(NC(C)CCCN)c2nccc(C)c2c1OCCCCCc1ccc(C(F)(F)F)cc1` (stereo not drawn): 2 µM; `CCCCCCOc1c(OC)cc(NC(C)CCCN)c2nc(OC)c(C)cc12` (stereo not drawn): 38 µM. `COc1cc(NC(C)CCCN)c2nccc(C)c2c1OCCCCCc1cccs1` (stereo not drawn) gave an IC50 of 3 µM.

For `COc1cc(NC(C)CCCN)c2nccc(C)c2c1OCCCCCc1c(C)cccc1C` (stereo not drawn), the IC50 stood at 22 µM.

The compound `N/C(=N\O)c1cc(O)c(O)c(O)c1` came in with an IC50 of 38 µM. For `N/C(=N\O)c1ccc(O)c(O)c1` the value was 23 µM. With `N/C(=N\O)c1cc(O)cc(O)c1`, half-maximal inhibition (IC50) was put at 589 µM. On to `COc1cc(/C(N)=N/O)cc(OC)c1OC`, for which the IC50 is 2010 µM. `CC(=O)C(N)c1cc(O)c(O)c(O)c1` (stereo not drawn) showed an IC50 of 301 µM. For the compound `CC1(C)Oc2c(c3nc4ccccc4nc3c3ccccc23)CC1Br` (stereo not drawn), the midpoint of inhibition, the IC50, lay at 9 µM. With `Nc1ncc(Cc2ccc(OCc3ccccc3)c(OCc3ccccc3)c2)c(N)n1`, the IC50 was found to be 3 µM.

As to `COc1cc(Cc2cnc(N)nc2N)ccc1OCc1ccccc1`, the midpoint of inhibition, the IC50, lay at 5 µM.

`COc1cc(Cc2cnc(N)nc2N)ccc1OCc1cc(OC)c(OC)c(OC)c1` gave an IC50 of 31 µM. Compound `O=C(NO)c1cccc(O)c1O` came in with an IC50 of 6 µM. In the case of `Nc1ncc(Cc2cccc(OCc3ccccc3)c2)c(N)n1`, half-maximal inhibition (IC50) required 3 µM.

The compound `COc1ccc(Cc2cnc(N)nc2N)cc1OCc1ccccc1` showed an IC50 of 4 µM. Next, `COc1cc(Cc2c(C)nc(N)nc2N)cc(OC)c1OC`: 23 µM; `NNC(=O)c1ccc(N2CCN(c3ccc(C(=O)NN)cc3)CC2)cc1`: 1 µM. Consider `Nc1nc(N)c(-c2cccc(Cl)c2)c(CCCOC(=O)c2ccccc2)n1`, for which the IC50 stood at 8 µM. Turning to `Nc1nc(N)c(-c2cccc(Cl)c2)c(CCCOC(=O)OCc2ccccc2)n1`, the midpoint of inhibition, the IC50, lay at 2 µM. As to `O=C(NO)c1ccc(O)c(O)c1`, half-maximal inhibition (IC50) required 16 µM. In the case of `COc1cc(COc2ccc(Cc3cnc(N)nc3N)cc2)cc(OC)c1OC`, the IC50 is 21 µM. In turn, `CCc1nc(N)nc(N)c1Cc1cc(OC)c(OC)c(OC)c1` returned an IC50 of 50 µM. For `Nc1nc(N)c(-c2cccc(Cl)c2)c(CCCO)n1` the value was 1 µM; for `CCOC(=O)c1ccc(N2CCN(c3ccc(C(=O)OCC)cc3)CC2)cc1`, 1 µM; for `CC(=O)OCCCc1nc(N)nc(N)c1-c1cccc(Cl)c1`, 2 µM.

In turn, `Nc1ncc(Cc2ccc(OCc3ccccc3)cc2)c(N)n1` returned an IC50 of 21 µM. Next, `NC(=O)C1C2c3ccccc3C(c3ccccc32)C1C(N)=O` (single isomer, unassigned): 42 µM; `CCCNC(=O)CC[C@@H](C)[C@H]1CC[C@H]2[C@@H]3[C@H](OC(C)=O)C[C@@H]4CC5(CC[C@]4(C)[C@H]3CC[C@]12C)OOC1(CCC(CC)CC1)OO5` (single isomer, unassigned; form 2): 1 µM; `CCCCN(CC)C(P(=O)(O)O)P(=O)(O)O` [(BUTYL(ETHYL)AMINO)METHYLENEDIPHOSPHONIC ACID]: 200 µM. As for `O=P(O)(O)C(NC1CCCCC1)P(=O)(O)O` [(CYCLOHEXYLAMINO)METHYLENEDIPHOSPHONIC ACID], 200 µM corresponded to half-maximal inhibition (IC50).

Turning to `O=P(O)(O)C(NC1CCCCCCC1)P(=O)(O)O` [(CYCLOOCTYLAMINO)METHYLENEDIPHOSPHONIC ACID], the IC50 is 200 µM. `O=P(O)(O)C(NC1CCCC1)P(=O)(O)O` [(CYCLOPENTYLAMINO)METHYLENEDIPHOSPHONIC ACID] yielded an IC50 of 200 µM. In turn, `O=P(O)(O)C(NC1CC1)P(=O)(O)O` [(CYCLOPROPYLAMINO)METHYLENEDIPHOSPHONIC ACID] yielded an IC50 of 200 µM. Next, `CC(C)N(C(C)C)C(P(=O)(O)O)P(=O)(O)O` [(DIISOPROPYLAMINO)METHYLENEDIPHOSPHONIC ACID]: 200 µM; `CC(C)CCNC(P(=O)(O)O)P(=O)(O)O` [(ISOPENTYLAMINO)METHYLENEDIPHOSPHONIC ACID]: 200 µM. Compound `CC(=O)NO` [ACETOHYDROXAMIC ACID] came in with a half-maximal inhibitory concentration (IC50) of 1030 µM. Take `O=C1Cc2c([nH]c3ccc([N+](=O)[O-])cc23)-c2ccccc2N1` [ALSTERPAULLONE]: it took 4 µM to reach half-maximal inhibition (IC50).

Regarding `CN(C)CCC=C1c2ccccc2CCc2ccccc21` [AMITRIPTYLINE], the IC50 worked out at 558 µM. `Oc1ccc(Nc2ccnc3cc(Cl)ccc23)cc1CN1CCCC1` [AMOPYROQUINE] registered an IC50 of 30 µM. In turn, `C[C@H]1[C@@H](O)O[C@@H]2O[C@@]3(C)CC[C@H]4[C@H](C)CC[C@@H]1[C@@]24OO3` [ARTENIMOL] showed an IC50 of 1000 µM. Compound `C[C@H]1[C@H](OC(=O)CCC(=O)O)O[C@@H]2O[C@@]3(C)CC[C@H]4[C@H](C)CC[C@@H]1[C@@]24OO3` [ARTESUNATE] registered an IC50 of 3 µM. As for `O=C1C(O)=C([C@H]2CC[C@H](c3ccc(Cl)cc3)CC2)C(=O)c2ccccc21` [ATOVAQUONE], 1 µM corresponded to half-maximal inhibition (IC50). For the compound `O=C(NO)c1ccccc1` [BENZOHYDROXAMATE], inhibition was half-maximal at 17 µM (IC50).

The compound `c1ccc2c(c1)ccc1nc3ccccc3nc12` [BENZO[A]PHENAZINE] came in with an IC50 of 20 µM. The compound `CC(CCCN)Nc1ccnc2cc(Cl)ccc12` (stereo not drawn) [BIDESETHYL CHLOROQUINE] came in with an IC50 of 134 µM. Consider `CC(C)NC(=N)NC(=N)Nc1ccc(Cl)c(Cl)c1` [CHLORPROGUANIL], for which the IC50 was found to be 9 µM. Take `CN(C)CCCN1c2ccccc2Sc2ccc(Cl)cc21` [CHLORPROMAZINE]: the IC50 was determined as 28 µM. `C=C[C@H]1CN2CC[C@H]1C[C@H]2[C@H](O)c1ccnc2ccccc12` [CINCHONIDINE] came in with an IC50 of 27 µM. Regarding `C=C[C@H]1CN2CC[C@H]1C[C@@H]2[C@@H](O)c1ccnc2ccccc12` [CINCHONINE], the IC50 is 23 µM. In turn, `CN(C)CCCC1(c2ccc(F)cc2)OCc2cc(C#N)ccc21` (stereo not drawn) [CITALOPRAM] showed an IC50 of 222 µM. Compound `CC1(C)N=C(N)N=C(N)N1c1ccc(Cl)cc1` [CYCLOGUANIL] showed an IC50 of 3 µM. Turning to `CC(CCCN1CCCC1)Nc1ccnc2cc(Cl)ccc12` (stereo not drawn) [Chloroquine-pyrolidinyl], the IC50 was 44 µM.

Compound `Nc1ccc(S(=O)(=O)c2ccc(N)cc2)cc1` [DAPSONE] came in with an IC50 of 18 µM. `CCN(CC)Cc1cc(Nc2ccnc3cc(Cl)ccc23)cc(-c2ccc(Cl)cc2)c1` [DEHYDROXY TEBAQUINE] displayed an IC50 of 51 µM. With `CCNCc1cc(Nc2ccnc3cc(Cl)ccc23)ccc1O` [DESETHYL AMODIAQUINE], the IC50 came to 73 µM. The compound `CCNCCCC(C)Nc1ccnc2cc(Cl)ccc12` (stereo not drawn) [DESETHYLCHLOROQUINE] had an IC50 of 3 µM. Compound `CNCCCN1c2ccccc2CCc2ccccc21` [DESIPRAMINE] showed a half-maximal inhibitory concentration (IC50) of 12 µM. For the compound `C[C@H]1c2cccc(O)c2C(=O)C2=C(O)[C@]3(O)C(=O)C(C(N)=O)=C(O)[C@@H](N(C)C)[C@@H]3[C@@H](O)[C@@H]21` [DOXYCYCLINE], the IC50 came to 18 µM. The compound `CC[C@H]1OC(=O)[C@H](C)[C@@H](O[C@H]2C[C@@](C)(OC)[C@@H](O)[C@H](C)O2)[C@H](C)[C@@H](O[C@@H]2O[C@H](C)C[C@H](N(C)C)[C@H]2O)[C@](C)(O)C[C@@H](C)C(=O)[C@H](C)[C@@H](O)[C@]1(C)O` [ERYTHROMYCIN] showed an IC50 of 18 µM. Next, `CCCCN(CCCC)CCC(O)c1cc2c(Cl)cc(Cl)cc2c2cc(C(F)(F)F)ccc12` (stereo not drawn) [HALOFANTRINE]: 185 µM; `NC(=O)NO` [HYDROXYUREA]: 792 µM. `C=C[C@@H]1CN2CC[C@@]3(CNc4cc(O)ccc43)[C@@H]2C[C@@H]1C[C@H]1c2[nH]c3ccccc3c2CCN1C` [ISOSTRYCHNOFOLINE] returned an IC50 of 6 µM. In turn, `O=C1Cc2c([nH]c3ccc(Br)cc23)-c2ccccc2N1` [KENPAULLONE] gave an IC50 of 4 µM.

As for `Cc1c(OCC(F)(F)F)ccnc1C[S+]([O-])c1nc2ccccc2[nH]1` (stereo not drawn) [LANSOPRAZOLE], the midpoint of inhibition, the IC50, lay at 11 µM.

Consider `C=C(C)[C@@H]1CC[C@]2(C)CC[C@]3(C)[C@H](CC[C@@H]4[C@@]5(C)CC[C@H](O)C(C)(C)[C@@H]5CC[C@]43C)[C@@H]12` [LUPEOL], for which the midpoint of inhibition, the IC50, lay at 28 µM. Next, `OC(c1cc(C(F)(F)F)nc2c(C(F)(F)F)cccc12)C1CCCCN1` (stereo not drawn) [MEFLOQUINE]: 5 µM; `CN(C)c1ccc(O)c2c1C[C@H]1C[C@H]3[C@H](N(C)C)C(O)=C(C(N)=O)C(=O)[C@@]3(O)C(O)=C1C2=O` [MINOCYCLINE]: 3 µM.

`CCn1cc(C(=O)O)c(=O)c2cc(F)c(N3CCNCC3)cc21` [NORFLOXACIN] had an IC50 of 75 µM. With `Cn1cnc2c(NCc3ccccc3)nc(NCCO)nc21` [OLOMOUCINE], the IC50 is 3 µM. The compound `COc1ccc2[nH]c([S+]([O-])Cc3ncc(C)c(OC)c3C)nc2c1` (stereo not drawn) [OMEPRAZOLE] came in with an IC50 of 76 µM.

`CNCC(O)CC12CCC(c3ccccc31)c1ccccc12` (stereo not drawn) [OXAPROTILINE] returned an IC50 of 245 µM. In turn, `CCCCC1C(=O)N(c2ccccc2)N(c2ccc(O)cc2)C1=O` (stereo not drawn) [OXYPHENBUTAZONE ANHYDROUS] registered an IC50 of 15 µM. Regarding `CN(C)[C@@H]1C(O)=C(C(N)=O)C(=O)[C@@]2(O)C(O)=C3C(=O)c4c(O)cccc4[C@@](C)(O)[C@H]3[C@H](O)[C@@H]12` [OXYTETRACYCLINE], the IC50 stood at 34 µM.

Turning to `COc1ccnc(C[S+]([O-])c2nc3cc(OC(F)F)ccc3[nH]2)c1OC` (stereo not drawn) [PANTOPRAZOLE], inhibition was half-maximal at 39 µM (IC50). Turning to `COc1cc(NC(C)CCCN)c2ncccc2c1` (stereo not drawn) [PRIMAQUINE], the IC50 came out at 105 µM. Regarding `CC(=O)[C@H]1CC[C@H]2[C@@H]3CCC4=CC(=O)CC[C@]4(C)[C@H]3CC[C@]12C` [PROGESTERONE], the IC50 was found to be 24 µM.

The values are drawn from ChEMBL document CHEMBL1212812, “Multi-target spectral moment QSAR versus ANN for antiparasitic drugs against different parasite species” (Bioorg Med Chem, 2010).
